Results: US9428452B2, “Compounds” (Glaxo Group Limited, priority 2012, dated 2016)
Counter-ions that a name gives are not always drawn.

The molecules below were run on IL-17A secreted from antiCD3/CD28 stimulated Peripheral Blood Mononuclear cells (PBMC) (assay: Peripheral Blood Mononucleocyte Cell Assay (PBMC Assay - IL-17)). Settings: Homo sapiens, 48 h, IL-17A release, read-out: mean pIC50 (converted).
Format: cell-based
Description: Peripheral Blood Mononucleocvte Cell Assay (PBMC Assay—IL-17) […]
This assay is designed to measure levels of IL-17A secreted from antiCD3/CD28 stimulated frozen Peripheral Blood Mononuclear cells (PBMC) isolated from human blood with the aim of identifying inhibitors of IL-17A release.
2. The compounds for screening are dispensed into a master plate at 10 mM top concentration which are serially diluted 1:3 across 11 points in DMSO, then 500 nL is transferred into a 384-well flat-bottomed Greiner plate to which 50 uL of cell suspension is added: for the single shot screening the highest concentration of compound is 10^−5M; for 11 point full curve dose response studies the highest concentration is 10^−4 M.
As a low control, DMSO (as supplied, for example, by VWR) (final concentration 1%) in column 6 (16 points).
As a high control, 5-(4-fluorophenyl)-2-ureidothiophene-3-carboxamide (obtainable from, for example, Sigma) at a final concentration of 10^−4 M in DMSO should be used in column 18 (16 points).
9. Make the cell suspension at the concentration 8×10^5 cells/mL to give a final number of 40,000 cells/well.
1. Add well mixed CD3/CD28 Dynabeads (as supplied, for example, by Dynal) to achieve ratio bead:cell=2:1 (ie. a dilution of 1 in 20). Mix thoroughly.
2. Dispense the suspension into the 384 Assay Plates using Multidrop (50 uL per well). If the volume of cell suspension is large, mix the suspension after dispensing into every other plate.
3. Cover the plates with the lids and place them to the humidified incubator (37° C., 5% CO2) for 48 hours.
1. Transfer 10 uL of supernatants from assay plates to the MSD plates using Cybiwell. Ensure that all wells are covered with the solution. Tap the plate gently, if some of the wells are not covered with the supernatant.
3. Add 10 uL of MSD IL-17 detecting antibody using multidrop (1 ug/mL in D-PBS without Ca^2+ and Mg^2+ (supplied, for example, by Gibco)).
4. Cover the plates with adhesive foil and incubated with shaking for 3 hours at room temperature
7. Add 35 uL of MSD Read Buffer T×2 using multidrop.
8. Read plates on MSD MA6000 reader using the 384 well plate protocol as per manufacturer's instructions.

SMILES | IC50 [µM]
Cc1ccc(N(CC(C)C)S(=O)(=O)c2ccc(C(O)CN3CCOCC3)cc2)c(C)c1 (single isomer, unassigned) [Example E122, N-(2,4-dimethylphenyl)-4-(1-hydroxy-2-morpholinoethyl)-N-isobutylbenzenesulfonamide] | < 1
Cc1ccc(N(CC(C)C)S(=O)(=O)c2ccc(OCC3CCNCC3)cc2)c(C)c1 [Example E8, N-(2,4-dimethylphenyl)-N-isobutyl-4-(piperidin-4-ylmethoxy)benzenesulfonamide, Trifluoroacetic acid salt] | < 1
Cc1ccc(N(CC(C)C)S(=O)(=O)c2ccc(OCC3(C)COCC(=O)N3)cc2)c(C)c1 (stereo not shown) [Example E11] | < 1
Cc1ccc(N(CC(C)C)S(=O)(=O)c2ccc(N3CCOCC3)cc2)c(C)c1 [Example E33] | < 1
Cc1ccc(N(CC(C)C)S(=O)(=O)c2ccc(OC[C@H]3NCCO[C@@H]3C)cc2)c(C)c1 [Example E36] | < 1
Cc1ccc(N(CC(C)C)S(=O)(=O)c2ccc(OCC3CCC(C)CC3)cc2)c(C)c1 (stereo not shown) [Example E47] | > 100
Cc1ccc(N(CC(C)C)S(=O)(=O)c2ccc(C(O)CN3CCOCC3)c(Cl)c2)c(C)c1 (stereo not shown) [Example E84] | < 1
Cc1ccc(N(CC(C)C)S(=O)(=O)c2ccc(C(O)CN3CCOCC3)c(F)c2)c(C)c1 (stereo not shown) [Example E87] | < 1
Cc1ccc(N(CC(C)C)S(=O)(=O)c2ccc(C(O)CN3CCOCC3)cc2C)c(C)c1 (stereo not shown) [Example E88] | < 1
Cc1ccc(N(CC(C)C)S(=O)(=O)c2ccc(C(CO)N3CCOCC3)c(C)c2)c(C)c1 (stereo not shown) [Example E89, N-(2,4-dimethylphenyl)-4-(2-hydroxy-1-morpholinoethyl)-N-isobutyl-3-methylbenzenesulfonamide] | < 1
Cc1ccc(N(CC(C)C)S(=O)(=O)c2ccc(C(O)CN3CCOCC3)c(C)c2)c(C)c1 (stereo not shown) [Example E90, N-(2,4-dimethylphenyl)-4-(1-hydroxy-2-morpholinoethyl)-N-isobutyl-3-methylbenzenesulfonamide] | < 1
CCc1ccc(N(CC(C)C)S(=O)(=O)c2ccc(C(O)CN3CCOCC3)cc2)cc1 (stereo not shown) [Example E113, N-(4-ethylphenyl)-4-(1-hydroxy-2-morpholinoethyl)-N-isobutylbenzenesulfonamide] | < 1
Cc1ccc(N(CC(C)C)S(=O)(=O)c2ccc(C(O)CN3CCOCC3)cc2)c(C)c1 (stereo not shown) [Example E120, N-(2,4-dimethylphenyl)-4-(1-hydroxy-2-morpholinoethyl-N-isobutylbenzenesulfonamide hydrochloride] | < 1
